In patent US11891387B2, “Monoacylglycerol lipase modulators” (Janssen Pharmaceutica NV, priority 2020, dated 2024):

These compounds were tested against human MGL from HeLa cells (Homo sapiens (Human), UniProt Q99685) (assay: MGL in vitro activity assay: cleavage of [glycerol-1,3-3H]-oleyl glycerol, activated carbon filtration). Conditions: 300 nM [Glycerol-1,3-3H]-oleyl glycerol, endogenously expressed MGL from HeLa cells, one hour incubation.
Type: biochemical
Description: The assay used to measure the in vitro activity of MGL is adapted from the assay used for another serine hydrolase (FAAH) described in Wilson et al., 2003 (A high-throughput-compatible assay for determining the activity of fatty acid amide hydrolase. Wilson S J, Lovenberg T W, Barbier A J. Anal Biochem. 2003 Jul. 15; 318(2):270-5.). The assay consists of combining endogenously expressed MGL from HeLa cells with test compounds, adding [glycerol-1,3-^3H]-oleyl glycerol, incubating for one hour, and then measuring the amount of cleaved [1,3-^3H]-glycerol that passes through an activated carbon filter. The amount of cleaved, tritiated glycerol passing through the carbon filter is proportional to the activity of the MGL enzyme in a particular well/test condition.
Standard conditions for this assay combine 300 nM [Glycerol-1,3-^3H]-oleyl glycerol with human MGL from HeLa cells and test compounds for one hour, after which the reaction is filtered through activated carbon and tritium is measured in the flow through. The test compound concentration in screening mode is 10 μM, while the highest compound concentration in IC50 assays is determined empirically. MGL is the predominant hydrolase in HeLa cells/cell homogenates.

Chain of human MGL from HeLa cells (Q99685 whole entry): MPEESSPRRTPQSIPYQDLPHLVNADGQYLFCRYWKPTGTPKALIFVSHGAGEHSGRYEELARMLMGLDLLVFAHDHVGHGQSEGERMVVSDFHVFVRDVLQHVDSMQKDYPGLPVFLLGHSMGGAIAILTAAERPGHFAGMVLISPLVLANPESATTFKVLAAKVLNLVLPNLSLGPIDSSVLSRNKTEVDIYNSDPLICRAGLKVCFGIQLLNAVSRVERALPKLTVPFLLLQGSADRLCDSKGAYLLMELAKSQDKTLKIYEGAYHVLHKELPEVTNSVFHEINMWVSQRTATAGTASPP

IC50 [nM] | Compound
19 | C[C@H]1c2nn(C)c(-c3cc(C(F)(F)F)nn3C)c2CCN1C(=O)c1nccc2ccccc12 [Example 44, (S)-(2,7-Dimethyl-3-(1-methyl-3-(trifluoromethyl)-1H-pyrazol-5-yl)-2,4,5,7-tetrahydro-6H-pyrazolo[3,4-c]pyridin-6-yl)(isoquinolin-1-yl)methanone]
1.1 | C[C@H]1c2nn(C)c(-c3cc(C(F)(F)F)nn3C)c2CCN1C(=O)c1cccc2c1ccn2C [Example 45, (S)-(2,7-Dimethyl-3-(1-methyl-3-(trifluoromethyl)-1H-pyrazol-5-yl)-2,4,5,7-tetrahydro-6H-pyrazolo[3,4-c]pyridin-6-yl)(1-methyl-1H-indol-4-yl)methanone]
5.7 | C[C@H]1c2nn(C)c(-c3cc(C(F)(F)F)nn3C)c2CCN1C(=O)c1ccnc2c1ccn2C [Example 46, (S)-(2,7-Dimethyl-3-(1-methyl-3-(trifluoromethyl)-1H-pyrazol-5-yl)-2,4,5,7-tetrahydro-6H-pyrazolo[3,4-c]pyridin-6-yl)(1-methyl-1H-pyrrolo[2,3-b]pyridin-4-yl)methanone]
0.67 | C[C@H]1c2nn(C)c(-c3cc(C(F)(F)F)nn3C)c2CCN1C(=O)c1c(F)cnc2c1ccn2C [Example 47, (S)-(2,7-Dimethyl-3-(1-methyl-3-(trifluoromethyl)-1H-pyrazol-5-yl)-2,4,5,7-tetrahydro-6H-pyrazolo[3,4-c]pyridin-6-yl)(5-fluoro-1-methyl-1H-pyrrolo[2,3-b]pyridin-4-yl)methanone]
19 | COc1cccc(C(=O)N2CCc3c(nn(C)c3-c3cc(C(F)(F)F)n(C)n3)[C@@H]2C)c1Cl [Example 48, (S)-(2-Chloro-3-methoxyphenyl)(2,7-dimethyl-3-(1-methyl-5-(trifluoromethyl)-1H-pyrazol-3-yl)-2,4,5,7-tetrahydro-6H-pyrazolo[3,4-c]pyridin-6-yl)methanone]
3.2 | C[C@H]1c2nn(C)c(-c3cc(C(F)(F)F)n(C)n3)c2CCN1C(=O)c1ccnc2c1ccn2C [Example 49, (S)-(2,7-Dimethyl-3-(1-methyl-5-(trifluoromethyl)-1H-pyrazol-3-yl)-2,4,5,7-tetrahydro-6H-pyrazolo[3,4-c]pyridin-6-yl)(1-methyl-1H-pyrrolo[2,3-b]pyridin-4-yl)methanone]
23 | Cc1cc(C(=O)N2CCc3c(nn(C)c3-c3cc(C(F)(F)F)n(C)n3)[C@@H]2C)cc(-n2nccn2)c1 [Example 50, (S)-(2,7-Dimethyl-3-(1-methyl-5-(trifluoromethyl)-1H-pyrazol-3-yl)-2,4,5,7-tetrahydro-6H-pyrazolo[3,4-c]pyridin-6-yl)(3-methyl-5-(2H-1,2,3-triazol-2-yl)phenyl)methanone]
890 | COc1cccc(C(=O)N2CCc3c(nn(C)c3-c3cnn(C)c3C(F)(F)F)[C@@H]2C)c1Cl [Example 51, (S)-(2-Chloro-3-methoxyphenyl)(2,7-dimethyl-3-(1-methyl-5-(trifluoromethyl)-1H-pyrazol-4-yl)-2,4,5,7-tetrahydro-6H-pyrazolo[3,4-c]pyridin-6-yl)methanone]
420 | C[C@H]1c2nn(C)c(-c3cnn(C)c3C(F)(F)F)c2CCN1C(=O)c1ccnc2c1ccn2C [Example 52, (S)-(2,7-Dimethyl-3-(1-methyl-5-(trifluoromethyl)-1H-pyrazol-4-yl)-2,4,5,7-tetrahydro-6H-pyrazolo[3,4-c]pyridin-6-yl)(1-methyl-1H-pyrrolo[2,3-b]pyridin-4-yl)methanone]
810 | Cc1cc(C(=O)N2CCc3c(nn(C)c3-c3cnn(C)c3C(F)(F)F)[C@@H]2C)cc(-n2nccn2)c1 [Example 53, (S)-(2,7-Dimethyl-3-(1-methyl-5-(trifluoromethyl)-1H-pyrazol-4-yl)-2,4,5,7-tetrahydro-6H-pyrazolo[3,4-c]pyridin-6-yl)(3-methyl-5-(2H-1,2,3-triazol-2-yl)phenyl)methanone]
16 | C[C@H]1c2nn(C)c(-c3cc(C(F)(F)F)nn3C)c2CCN1C(=O)c1cccc2c1OCCC2 [Example 54, (S)-Chroman-8-yl(2,7-dimethyl-3-(1-methyl-3-(trifluoromethyl)-1H-pyrazol-5-yl)-2,4,5,7-tetrahydro-6H-pyrazolo[3,4-c]pyridin-6-yl)methanone]
110 | C[C@H]1c2nn(C)c(-c3cc(C(F)(F)F)nn3C)c2CCN1C(=O)c1ccc2c(c1)OCCC2 [Example 55, (S)-Chroman-7-yl(2,7-dimethyl-3-(1-methyl-3-(trifluoromethyl)-1H-pyrazol-5-yl)-2,4,5,7-tetrahydro-6H-pyrazolo[3,4-c]pyridin-6-yl)methanone]
26 | C[C@H]1c2nn(C)c(-c3cc(C(F)(F)F)nn3C)c2CCN1C(=O)c1ccc2ncsc2c1 [Example 56, (S)-Benzo[d]thiazol-6-yl(2,7-dimethyl-3-(1-methyl-3-(trifluoromethyl)-1H-pyrazol-5-yl)-2,4,5,7-tetrahydro-6H-pyrazolo[3,4-c]pyridin-6-yl)methanone]
22 | C[C@H]1c2nn(C)c(-c3cc(C(F)(F)F)nn3C)c2CCN1C(=O)c1cccc2ncsc12 [Example 57, (S)-Benzo[d]thiazol-7-yl(2,7-dimethyl-3-(1-methyl-3-(trifluoromethyl)-1H-pyrazol-5-yl)-2,4,5,7-tetrahydro-6H-pyrazolo[3,4-c]pyridin-6-yl)methanone]
55 | Cc1nc2ccc(C(=O)N3CCc4c(nn(C)c4-c4cc(C(F)(F)F)nn4C)[C@@H]3C)cc2s1 [Example 58, (S)-(2,7-Dimethyl-3-(1-methyl-3-(trifluoromethyl)-1H-pyrazol-5-yl)-2,4,5,7-tetrahydro-6H-pyrazolo[3,4-c]pyridin-6-yl)(2-methylbenzo[d]thiazol-6-yl)methanone]
2960 | C[C@H]1c2nn(C)c(-c3cnn(C)c3C(F)(F)F)c2CCN1C(=O)c1ccc2ncsc2c1 [Example 59, (S)-Benzo[d]thiazol-6-yl(2,7-dimethyl-3-(1-methyl-5-(trifluoromethyl)-1H-pyrazol-4-yl)-2,4,5,7-tetrahydro-6H-pyrazolo[3,4-c]pyridin-6-yl)methanone]
4250 | COc1nccc(C(=O)N2CCc3c(nn(C)c3-c3cnn(C)c3C(F)(F)F)[C@@H]2C)c1C [Example 60, (S)-(2,7-Dimethyl-3-(1-methyl-5-(trifluoromethyl)-1H-pyrazol-4-yl)-2,4,5,7-tetrahydro-6H-pyrazolo[3,4-c]pyridin-6-yl)(2-methoxy-3-methylpyridin-4-yl)methanone]
7180 | C[C@H]1c2nn(C)c(-c3cn(C)nc3C(F)(F)F)c2CCN1C(=O)c1ccc2c(c1)OCCC2 [Example 61, (S)-Chroman-7-yl(2,7-dimethyl-3-(1-methyl-3-(trifluoromethyl)-1H-pyrazol-4-yl)-2,4,5,7-tetrahydro-6H-pyrazolo[3,4-c]pyridin-6-yl)methanone]
1940 | C[C@H]1c2nn(C)c(-c3cnn(C)c3)c2CCN1C(=O)c1ccc2ncccc2c1 [Example 62, (S)-(2,7-Dimethyl-3-(1-methyl-1H-pyrazol-4-yl)-2,4,5,7-tetrahydro-6H-pyrazolo[3,4-c]pyridin-6-yl)(quinolin-6-yl)methanone]
63 | C[C@H]1c2nn(C)c(-c3cc(C(F)(F)F)n(C)n3)c2CCN1C(=O)c1ccc2ncccc2c1 [Example 63, (S)-(2,7-Dimethyl-3-(1-methyl-5-(trifluoromethyl)-1H-pyrazol-3-yl)-2,4,5,7-tetrahydro-6H-pyrazolo[3,4-c]pyridin-6-yl)(quinolin-6-yl)methanone]
79 | C[C@H]1c2nn(C)c(-c3cnn(C(F)(F)F)c3)c2CCN1C(=O)c1ccc2ncccc2c1 [Example 64, (S)-(2,7-Dimethyl-3-(1-(trifluoromethyl)-1H-pyrazol-4-yl)-2,4,5,7-tetrahydro-6H-pyrazolo[3,4-c]pyridin-6-yl)(quinolin-6-yl)methanone]
39 | C[C@H]1c2nn(C)c(-c3cc(C(F)(F)F)nn3C)c2CCN1C(=O)c1ccc2ncccc2c1 [Example 65, (S)-(2,7-Dimethyl-3-(1-methyl-3-(trifluoromethyl)-1H-pyrazol-5-yl)-2,4,5,7-tetrahydro-6H-pyrazolo[3,4-c]pyridin-6-yl)(quinolin-6-yl)methanone]
4000 | CCn1ccc(-c2c3c(nn2C)[C@H](C)N(C(=O)c2ccc4ncccc4c2)CC3)n1 [Example 66, (S)-(3-(1-Ethyl-1H-pyrazol-3-yl)-2,7-dimethyl-2,4,5,7-tetrahydro-6H-pyrazolo[3,4-c]pyridin-6-yl)(quinolin-6-yl)methanone]
1340 | C[C@H]1c2nn(C)c(-c3ccn(C(F)F)n3)c2CCN1C(=O)c1ccc2ncccc2c1 [Example 67, (S)-(3-(1-(Difluoromethyl)-1H-pyrazol-3-yl)-2,7-dimethyl-2,4,5,7-tetrahydro-6H-pyrazolo[3,4-c]pyridin-6-yl)(quinolin-6-yl)methanone]
4200 | C[C@H]1c2nn(C)c(-c3ccnn3C3CC3)c2CCN1C(=O)c1ccc2ncccc2c1 [Example 68, (S)-(3-(1-Cyclopropyl-1H-pyrazol-5-yl)-2,7-dimethyl-2,4,5,7-tetrahydro-6H-pyrazolo[3,4-c]pyridin-6-yl)(quinolin-6-yl)methanone]
89 | C[C@H]1c2nn(C)c(-c3cnn(C(F)F)c3)c2CCN1C(=O)c1ccc2ncccc2c1 [Example 69, (S)-(3-(1-(Difluoromethyl)-1H-pyrazol-4-yl)-2,7-dimethyl-2,4,5,7-tetrahydro-6H-pyrazolo[3,4-c]pyridin-6-yl)(quinolin-6-yl)methanone]
